Measured values: ChEMBL document CHEMBL1147410, “Binding of an imidazopyridoindole at imidazoline I2 receptors” (Bioorg Med Chem Lett, 2004)

Tests used:
[1] = Binding affinity for rat imidazoline I2 receptor from crude P2 membranes
[2] = Binding affinity for rat imidazoline I2 receptor from crude P2 membranes; 1-5
[3] = Binding affinity for rat imidazoline I2 receptor from crude P2 membranes; 350-880
[4] = target: T1, Adrenergic receptor alpha-2 (Rattus norvegicus, UniProt P22086+P19328+P22909); assay: Binding affinity for rat alpha-2 adrenergic receptor from crude P2 membranes
T1 sequence (P22086 whole entry): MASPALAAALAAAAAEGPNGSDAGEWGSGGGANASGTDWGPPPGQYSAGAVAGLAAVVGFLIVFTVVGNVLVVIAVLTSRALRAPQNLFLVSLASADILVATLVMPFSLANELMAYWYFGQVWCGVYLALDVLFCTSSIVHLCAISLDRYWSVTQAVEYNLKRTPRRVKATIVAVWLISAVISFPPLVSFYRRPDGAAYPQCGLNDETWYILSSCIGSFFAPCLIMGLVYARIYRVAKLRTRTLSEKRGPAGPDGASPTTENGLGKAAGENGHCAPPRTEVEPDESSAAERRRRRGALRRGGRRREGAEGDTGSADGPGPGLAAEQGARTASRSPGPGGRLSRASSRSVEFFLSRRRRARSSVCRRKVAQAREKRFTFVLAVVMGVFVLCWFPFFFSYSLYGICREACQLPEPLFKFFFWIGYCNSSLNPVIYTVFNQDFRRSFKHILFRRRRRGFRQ
T1 sequence (P19328 whole entry): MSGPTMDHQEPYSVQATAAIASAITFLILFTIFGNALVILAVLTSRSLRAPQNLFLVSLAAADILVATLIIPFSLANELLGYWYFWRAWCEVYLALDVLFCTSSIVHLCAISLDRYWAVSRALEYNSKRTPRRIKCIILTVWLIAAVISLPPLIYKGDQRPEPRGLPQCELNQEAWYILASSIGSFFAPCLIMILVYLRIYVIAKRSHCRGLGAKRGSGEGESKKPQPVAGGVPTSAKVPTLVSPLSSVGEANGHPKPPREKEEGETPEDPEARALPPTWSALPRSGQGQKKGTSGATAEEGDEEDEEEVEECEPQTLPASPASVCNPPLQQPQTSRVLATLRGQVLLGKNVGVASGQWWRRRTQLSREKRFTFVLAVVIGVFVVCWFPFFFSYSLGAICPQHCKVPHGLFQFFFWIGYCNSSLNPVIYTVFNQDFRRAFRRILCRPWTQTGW
T1 sequence (P22909 whole entry): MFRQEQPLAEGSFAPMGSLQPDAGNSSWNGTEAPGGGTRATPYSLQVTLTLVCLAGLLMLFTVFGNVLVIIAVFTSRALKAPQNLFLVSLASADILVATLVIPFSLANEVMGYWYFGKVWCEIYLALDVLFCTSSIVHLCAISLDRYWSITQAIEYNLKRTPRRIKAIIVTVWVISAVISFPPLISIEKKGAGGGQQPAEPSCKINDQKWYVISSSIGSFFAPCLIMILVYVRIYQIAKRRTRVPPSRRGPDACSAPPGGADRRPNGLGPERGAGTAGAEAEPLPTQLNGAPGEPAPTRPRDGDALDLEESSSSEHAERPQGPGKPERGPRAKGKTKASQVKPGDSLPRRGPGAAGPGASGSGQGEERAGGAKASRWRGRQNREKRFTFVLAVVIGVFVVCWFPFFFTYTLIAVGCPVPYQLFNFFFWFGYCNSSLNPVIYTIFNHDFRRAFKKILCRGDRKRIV

Ki [1] [µM] | SMILES | Ki [4] [µM] | further results
2.34 | c1coc(C2=NCCN2)c1 | – | –
0.0073 | c1ccc2c3c([nH]c2c1)C1=NCCN1CC3 | – | –
< 0.01 | c1ccc2oc(C3=NCCN3)cc2c1 | 4 | –
0.002 | C(=C\c1ccccc1)/C1=NCCN1 [TRACIZOLINE] | 7.413 | –

The remaining lines, values behind:

SMILES | Ki [1] [µM] | Ki [4] [µM] | further results
c1ccc(OCC2=NCCN2)cc1 | – | – | Ki [2]: 0.005 µM
c1ccc2c(c1)CC(C1=NCCN1)O2 (stereo not drawn) | ~0.05 | – | –
c1ccc2oc(-c3ncc[nH]3)cc2c1 | – | – | Ki [3]: ~0.88 µM
COc1ccc2c3c([nH]c2c1)CNCC3 | – | 8.84 | –
c1ccc(CCC2=NCCN2)cc1 [PHENYZOLINE] | – | – | Ki [2]: 0.005 µM
c1ccc2c3c([nH]c2c1)CNCC3 [TRYPTOLINE] | 0.0094 | 0.71 | –
